One may read the EC50 as the concentration that produces a half-maximal response. The IC50 is the concentration needed to halve the response being measured. Low readings indicate greater potency, high ones weaker potency. For orientation: CC50 means the concentration that lowers cell viability or growth by half. A higher CC50 goes with lower toxicity to the cells.

We go through 7 molecules from PMC12124364 (Science Advances, 2025).

Data set [1] has as its system HIV-1 WT strain (IIIB). Nature of the data set: Anti-HIV activity against HIV-1 IIIB in MT-4 cells. The format is cell-based. As to conditions: Human immunodeficiency virus 1, IIIB, MT4, read-out: EC50 IIIB strain.
The test system of data set [2] is HIV-1 5e2res strain. Nature of the data set: Anti-HIV activity against selected 5e2res strain in MT-4 cells. The format is cell-based. To be noted: for RF (resistance fold), 5e2res strain: EC50(mutant strain)/EC50(IIIB strain); for EC50: Human immunodeficiency virus 1, MT4, read-out: EC50 5e2res strain.
For data set [3], the system named is HIV-1 5i3res strain. In words: Anti-HIV activity against selected 5i3res strain in MT-4 cells. The data set is classed as cell-based. To be noted: for EC50: Human immunodeficiency virus 1, MT4, read-out: EC50 5i3res strain.
Data set [4] deals with HIV-1 K101P mutation. To be noted: cited from earlier work.
Data set [5] deals with HIV-1 K103N mutation. As to conditions: cited from earlier work.
The test system of data set [6] is HIV-1 GH9 (K101P/K103N/V108I). To be noted: cited from earlier work.
Data set [7] relates to HIV-1 GH9 (K101P/K103N/V108I). Nature of the data set: Anti-HIV-1 activity against triple-mutant strain GH9 in TZM-bl cells. The format is cell-based. To be noted: Human immunodeficiency virus 1, TZM-bl, read-out: EC50 GH9.
Data set [8] relates to HIV-1 p1579 (E138G/H221Y/F227L/M230L). Nature of the data set: Anti-HIV-1 activity against NNRTI-resistant strain p1579 in TZM-bl cells. The data set is classed as cell-based. As to conditions: Human immunodeficiency virus 1, TZM-bl, read-out: EC50 p1579.
Data set [9] concerns HIV-1 p5375 (A98G/K101E/E138K/Y181C). Nature of the data set: Anti-HIV-1 activity against NNRTI-resistant strain p5375 in TZM-bl cells. The format is cell-based. As to conditions: Human immunodeficiency virus 1, TZM-bl, read-out: EC50 p5375.
Data set [10] relates to HIV-1 p1833 (A98G/K101E/Y181C/G190A). In words: Anti-HIV-1 activity against NNRTI-resistant strain p1833 in TZM-bl cells. The format is cell-based. To be noted: Human immunodeficiency virus 1, TZM-bl, read-out: EC50 p1833.
Data set [11] has as its system HIV-1 p5735 (K101E/Y181V). In words: Anti-HIV-1 activity against NNRTI-resistant strain p5735 in TZM-bl cells. The format is cell-based. As to conditions: Human immunodeficiency virus 1, TZM-bl, read-out: EC50 p5735.
In data set [12] the test system is CYP1A2, CYP2C9, CYP2C19, CYP2D6 (range over isozymes). Nature of the data set: Cytochrome P450 inhibition assay, ranges over isozymes. As to conditions: human, human liver microsomes. The data set is classed as in vitro ADME. Background: Microsomes from liver hold many membrane-bound enzymes, among them those of drug oxidation.
Data set [13] in a line: Cytotoxicity in TZM-bl cells. The format is cell-based. As to conditions: human.

With `Cc1cn([C@H]2C[C@H](N=[N+]=[N-])[C@@H](CO)O2)c(=O)[nH]c1=O` [AZT, zidovudine], the EC50 was determined as 40.9 nM in [1], 51.9 nM in [2] and 48.9 nM in data set [3]. Besides, the “RF (resistance fold), 5e2res strain” value in data set [2] was found to be 1.3. In addition, the “RF (resistance fold), 5i3res strain” value in data set [3] (EC50(mutant strain)/EC50(IIIB strain)) amounted to 1.2.
As to `O=C1Nc2ccc(Cl)cc2[C@@](C#CC2CC2)(C(F)(F)F)O1` [EFV, efavirenz], the “reduction in efficacy by K101P mutation alone” value (“reduction in efficacy” below) in data set [4] is given as > 50 fold. Further, the “reduction in susceptibility by K103N mutation” value in data set [5] is recorded as “about 20 fold”. Further, in data set [6], the “resistance conferred by triple-mutant strain GH9” value is “up to 12,931 fold”.
Consider `Cc1cc(C#N)cc(C)c1Oc1nc(Nc2ccc(C#N)cc2)nc(N)c1Br` [ETR, etravirine], for which the EC50 in data set [7] came out at 104 ± 38.2 nM; in [8], 74.9 ± 18.9 nM; in data set [9], 37.6 ± 8.06 nM; in data set [10] it was 11.1 ± 2.76 nM; in [11], 14.3 ± 5.07 nM. For the same molecule, the concentration for half-maximal inhibition (IC50) at 10 min in data set [12] fell in the range of 277 to 12000 nM. Moreover, the “reduction in efficacy” value in [4] is recorded as “about five-fold”.
Regarding `Cc1ccnc2c1NC(=O)c1cccnc1N2C1CC1` [NVP, nevirapine], in [2] (MT-4 cells), the “EC50 5e2res strain” value is “completely inactive”. Moreover, the “EC50 5i3res strain” value in data set [3] (MT-4 cells) is “completely inactive”. In data set [5], the “reduction in susceptibility by K103N mutation” value is given as ~50 fold.
`Cc1cc(/C=C/C#N)cc(C)c1Nc1ccnc(Nc2ccc(C#N)cc2)n1` [RPV, rilpivirine]: the CC50 at 4 days in data set [13] was > 54500 nM. In addition, the EC50 in [7] was determined as 1710 ± 339 nM; in data set [8], 1.26 ± 0.38 nM; in data set [9], 1.07 ± 0.3 nM; in data set [11] it was 151 ± 32 nM; in data set [2], 16.6 nM; in data set [3], 74.6 nM. Further, the “reduction in efficacy” value in data set [4] is given as “up to 243 fold”. Besides, the “resistance conferred by triple-mutant strain GH9” value in [6] is on record as > 162 fold.
Take `Nc1ccn([C@H]2CC[C@@H](CO)O2)c(=O)n1` [ddC, zalcitabine]: the results for the EC50 in [1] and in data set [2] were 890 nM and 690 nM, respectively. Further, the “RF (resistance fold), 5e2res strain” value in data set [2] was 0.8.
For `O=c1[nH]cnc2c1ncn2[C@H]1CC[C@@H](CO)O1` [ddI, didanosine], the EC50 in [1] turned out to be 19700 nM; in [3] it was 8930 nM.
